Results on 8 compounds are retold here after patent publication US20250042886A1, “BIS(HETERO)ARYL THIOETHER OXADIAZINES AS FUNGICIDAL COMPOUNDS” (Bayer Aktiengesellschaft, priority 2021, published 2025).

A short description of data set [1]: Measurement of Log P values by HPLC on reversed phase columns (EEC directive 79/831 Annex V.A8). Format: physicochemical. The note with it: Table 1, compounds of formula (I); method [a]: LC-UV, acidic range, 0.1% formic acid in water and acetonitrile.
For the next data set, the system named is Septoria tritici. The data set is described as follows: Septoria tritici in vitro cell test. Format: cell-based. Conditions: Zymoseptoria tritici, 168 h, liquid culture, 7 days incubation, read-out: efficacy (inhibition of fungal growth); for inhibition at 20 ppm: 20 ppm of active ingredient. As for the experimental part: B-11. Septoria tritici In Vitro Cell Test • Solvent: DMSO • Culture medium: 1 g KH2PO4 (VWR), 1 g K2HPO4 (VWR), 0.5 g Urea (VWR), 3 g KNO3 (Prolabo), 10 g saccharose (VWR), 0.5 g MgSO4, 7H2O (Sigma), 0.07 g CaCl2, 2H2O (Prolabo), 0.2 mg MnSO4, H2O (Sigma), 0.6 mg CuSO4, 5H2O (Sigma), 7.9 mg ZnSO4, 7H2O (Sigma), 0.1 mg H3BO3 (Merck), 0.14 mg NaMoO4, 2H2O (Sigma), 2 mg thiamine (Sigma), 0.1 mg biotine (VWR), 4 mg FeSO4, 7H2O (Sigma), QSP 1 liter • Inoculum: spore suspension Fungicides were solubilized in DMSO and the solution used to prepare the required range of concentrations. […] A spore suspension of S. tritici was prepared and diluted to the desired spore density. Fungicides were evaluated for their ability to inhibit spore germination and mycelium growth in liquid culture assay. The compounds were added in the desired concentration to the culture medium with spores. […] Inhibition of fungal growth was determined by comparing the absorbance values in wells containing the fungicides with the absorbance in control wells without fungicides.

For another data set, the system named is Alternaria alternata. Kind of data set: Alternaria alternata in vitro cell test. It counts as cell-based. Conditions: 120 h, liquid culture, 5 days incubation, read-out: efficacy (inhibition of fungal growth); for inhibition at 20 ppm: 20 ppm of active ingredient. A digest of the protocol: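 Spores in glucose/mycological peptone/yeast extract liquid medium were exposed to DMSO-dissolved fungicides for 5 days. Inhibition of germination and mycelial growth was read spectrophotometrically, comparing absorbance against fungicide-free control wells.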

Data set [2] relates to Colletotrichum lindemuthianum. Kind of data set: In vivo preventive test on Colletotrichum lindemuthianum (leaf spot on bean). The note with it: 168 h, 500 ppm of active ingredient, sprayed on young bean plants 24 h before inoculation, evaluated 7 days after inoculation, read-out: efficacy. A digest of the protocol: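 Young bean plants sprayed preventively with compound in DMSO/acetone/Tween 80 diluted in water; controls got solvent mix only. After 24 hours, leaves sprayed with an aqueous spore suspension of C. lindemuthianum.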

Another data set concerns Sphaerotheca fuliginea. Kind of data set: In vivo preventive test on Sphaerotheca fuliginea (powdery mildew on cucurbits). Conditions: Podosphaera fuliginea, 192 h; 500 ppm of active ingredient, sprayed on young gherkin plants 24 h before inoculation; evaluated 8 days after inoculation; read-out: efficacy. As for the experimental part:
B-3. […] The active ingredients were made soluble and homogenized in a mixture of Dimethyl sulfoxide/Acetone//Tween® 80 and then diluted in water to the desired concentration. The young plants of gherkin were treated by spraying the active ingredient prepared as described above. Control plants were treated only with an aqueous solution of Acetone/Dimethyl sulfoxide/Tween® 80. After 24 hours, the plants were contaminated by spraying the leaves with an aqueous suspension of Sphaerotheca fuliginea spores.

`Cc1cccc(Sc2cnc3ccccc3c2C2=NOC[C@H](Cc3ccc(C)cc3C)N2)c1` (racemic) [Compound I-023] came in with a chromatographic logP in data set [1] of 4.37. Besides, the inhibition at 20 ppm in the data set with Septoria tritici and in the data set with Alternaria alternata was 90 to 100% throughout. For the same compound, in data set [2], the pest or weed control at 500 ppm fell in the range of 70 to 79%.
With `Cc1cc([C@@H]2CON=C(c3c(Sc4cccc(Cl)c4)nnc(C)c3C)N2)c(C)s1` (racemic) [Compound I-100], the chromatographic logP in data set [1] stood at 3.49. Moreover, the inhibition at 50 µM in the data set with Septoria tritici (50 μMol/l of active ingredient) and in the data set on Alternaria alternata (50 μMol/l of active ingredient) was 90 to 100% each time. For the same compound, the pest or weed control at 500 ppm in data set [2] was in the range of 90 to 100%.
With `FC(F)(F)c1cccc(Sc2cnc(Cl)cc2C2=NOC[C@@H](Cc3ccc(Cl)cc3Cl)N2)c1` (racemic) [Compound I-022], the chromatographic logP in data set [1] amounted to 4.97. The inhibition at 20 ppm with Septoria tritici fell in the range of 80 to 89%. Besides, the pest or weed control at 500 ppm (in the data set with Sphaerotheca fuliginea; in data set [2]) was 90 to 100% each time.
In turn, `Cc1ccc(C[C@H]2CON=C(c3c(Sc4cccc(C(F)(F)F)c4)cnc4ccccc34)N2)c(C)c1` (racemic) [Compound I-030] gave a chromatographic logP in data set [1] of 4.57. Also, the results for the inhibition at 20 ppm in the data set on Septoria tritici and in the data set with Alternaria alternata were 70 to 79% and 90 to 100%, respectively. Besides, the pest or weed control at 500 ppm in data set [2] is 90 to 100%.
With `Cc1ccc(C[C@@H]2CON=C(c3nc(C)ncc3Sc3cccc(Cl)c3)N2)c(Cl)c1` (racemic) [Compound I-033], in data set [1], the chromatographic logP is 5.24. Besides, in the data set with Septoria tritici, the inhibition at 20 ppm was in the range of 90 to 100%. Further, the pest or weed control at 500 ppm (in the data set on Sphaerotheca fuliginea; in data set [2]) was 90 to 100% in each case.
In data set [1], `Cc1cccc(Sc2cnc(C)nc2C2=NOC[C@@H](Cc3ccc(C)cc3C)N2)c1` (racemic) [Compound I-032] returned a chromatographic logP of 5.09. For the same compound, the inhibition at 20 ppm in the data set with Septoria tritici was in the range of 90 to 100%; in the data set with Alternaria alternata it was 70 to 79%. For the same compound, the pest or weed control at 500 ppm (with Sphaerotheca fuliginea; in data set [2]) was 90 to 100% in each case.
Compound `Cc1ccc(C[C@@H]2CON=C(c3c(Sc4cccc(C(F)(F)F)c4)nnc4ccccc34)N2)c(C)c1` (racemic) [Compound I-029] registered a chromatographic logP in data set [1] of 4.66. Also, the inhibition at 20 ppm in the data set on Septoria tritici and in the data set with Alternaria alternata was 90 to 100% in each case. Further, in data set [2], the pest or weed control at 500 ppm is 70 to 79%.
As to `Cc1ccc(C[C@@H]2CON=C(c3nc(C)ncc3Sc3cccc(Cl)c3)N2)c(C)c1` (racemic) [Compound I-031], the chromatographic logP in data set [1] was 5.16. The inhibition at 20 ppm in the data set with Septoria tritici is 80 to 89%; in the data set with Alternaria alternata, 70 to 79%. The pest or weed control at 500 ppm (with Sphaerotheca fuliginea; in data set [2]) was 90 to 100% each time.
